In patent publication US20220040166A1, “Methods and Compositions of Treating an Ophthalmic Condition” (KARTOS THERAPEUTICS, priority 2018, published 2022):
Converted amounts (≈) assume the structure as drawn. Marks after values point to notes of the source that are not given here.

How the values were obtained:
[1] = test system: MDM2-amplified tumor cell line SJSA; assay: Induction of p21 mRNA by Comp-A in SJSA cells; assay type: cell-based
[2] = Tolerability of intravitreally administered solution of the compound of Formula (I)
Method: Based on expected solubility, a maximum feasible intravitreal dose of 44 μg of the compound of Formula (I) in 50 uL pH 7.85 aqueous buffer (sterile saline for injection, phosphate buffered saline or HEPES buffered saline) was administered to Dutch Belted rabbits.
Ophthalmoscopic examinations (slit lamp), ocular scoring, and intraocular pressure were observed through 5 days post-administration.

[3] = In vitro release of Comp-A from nanoparticles by dialysis against HBS (pH 7) at 37° C.; assay type: physicochemical; settings: dialyzed against >1000X volume HBS (pH 7) at 37° C.
Method: • 5. Immediately following formulation, NPs were diluted to 4× volume in HBS. • 6. Pall 30 kDa MWCO centrifugal filters were used for solvent exchange to HBS and to concentrate formulations (2000×g, 21° C.). • 7. Particle size and polydispersity index (PDI) were analyzed using a Malvern Zetasizer (dynamic light scattering; DLS). […] Final formulations were sterile filtered through 0.22 μm syringe filters and stored at −80° C. in MrFrosty freezing containers. The following day formulations were moved to cryogenic freezer boxes for storage prior to shipping. • 9. A sample of each formulation was thawed to room temperature and dialyzed against >1000 volumes of 1×HBS (pH 7) at 37° C. for 6 hours. Samples were collected at 2 mins, 30 mins, 2 hours and 6 hours and analyzed for drug content by UPLC to determine particle release characteristics.

[4] = 44 μg in 50 uL pH 7.85 aqueous buffer, intravitreal, rabbit

SMILES: CC(C)[C@@H](CS(=O)(=O)C(C)C)N1C(=O)[C@@](C)(CC(=O)O)C[C@H](c2cccc(Cl)c2)[C@H]1c1ccc(Cl)cc1 [Comp-A, 2-((3R,5R,6S)-5-(3-chlorophenyl)-6-(4-chlorophenyl)-1-((S)-1-(isopropylsulfonyl)-3-methylbutan-2-yl)-3-methyl-2-oxopiperidin-3-yl) Acetic Acid]
- EC50 [1]: 0.0262 µg/mL (≈ 0.0461 µM)
- Changes in intra-ocular pressure [2, 4]: no changes
- Ophthalmologic observations through 5 days [2, 4]: no ophthalmologic observations
- Tolerability ([2]; 22 microgram/eye in PBS (1×) and in HEPES buffered saline): no findings
- Tolerability ([2]; 44 microgram/eye in PBS (1×) and in HEPES buffered saline): no findings
- % Release after 2 h dialysis ([3]; 2 h): <1%
- % Release after 6 h dialysis ([3]; 6 h): 0* %
